Paper PMC11251039, “Harnessing cholesterol uptake of malaria parasites for therapeutic applications” (EMBO Molecular Medicine, 2024)
Values joined by “and” are separate entries in the source; they are usually repeats but may differ in a detail not shown here. Equal entries are not always repeated. Where two headings read alike, the source gives them in different places.

Tested on: asexual P. falciparum 3D7 wild-type parasites
Test: P. falciparum asexual growth inhibition assay (SYBR Safe DNA replication)
Assay type: cell-based, Plasmodium falciparum
Parameters: Figure 5B dose-response source data (growth, replicate values): unit not given here
Method: P. falciparum asexual parasite assays commenced with ring-stage parasites at 1% parasitaemia and 1% haematocrit. 200 nM chloroquine (Sigma C6628) or artesunate (Sigma A3731) was used as a no-growth control. DNA replication (indicating growth) was measured at the specified time using SYBR Safe DNA Gel Stain (Invitrogen 33102) and a fluorescence microplate reader (Smilkstein et al, [2004]; Spry et al, [2013]). […]
Growth and Viability Inhibition Assays:
Plasmodium falciparum Growth Inhibition Assays:
P. falciparum parasites were maintained under routine culture conditions in red blood cells and RPMI 1640-Hepes with Glutamax, supplemented with 10 mM D-glucose, 480 μM hypoxanthine, 20 μg/mL gentamicin, 0.375% (w/v) AlbuMAXTM II (Thermo Fisher 11021029), and 2.5% v/v heat-inactivated human serum (17). Cultures were maintained at 37 °C […]
wildtype parasites except for the ring stage survival assay, as specified. Cultures were synchronised with 5% w/v D-sorbitol (18).
Growth inhibition was investigated according to methods described by Smilkstein et al. (19) with modifications by Spry et al. (20). Compounds or solvent controls (DMSO, ethanol, or ethyl acetate) were serially diluted 2-fold across flat-bottom 96-well plates. Culture media without compound was used as a negative control. 200 nM chloroquine (Sigma C6628) or artesunate (Sigma A3731) was used as a positive control to determine background fluorescence. The parasitaemia of a culture containing predominantly ring stage parasites was counted by Giemsa smear. The parasitaemia was adjusted to 1% by addition of fresh uRBCs and added to the plate at a final haematocrit of 1%, with 200 µL per well. The plates were incubated at 37 °C under humid microaerophilic conditions. After 24, 48, or 72 hours, the plates were transferred to a -18 °C freezer to stop the assay and lyse cells. Plates were thawed and lysate was mixed 1:1 with SYBR Safe DNA Gel Stain (Invitrogen 33102) (final concentration 1/10,000) diluted in lysis buffer (20 mM TRIS, 5 mM EDTA, 0.008% w/v Saponin, 0.08% w/v Triton-X 100, pH 7.5). Fluorescence was detected at 490 nm excitation/ 520 nm emission on a FLUOstar Optima fluorescence plate reader (BMG Labtech).

[1] = Plasmodium falciparum, 3D7, 72 h; read-out: IC50, P. falciparum asexual growth inhibition
[2] = Plasmodium falciparum, 3D7; 24 h, starting at ring stages; read-out: IC50, P. falciparum asexual growth inhibition

CC(C)CCC[C@@H](C)[C@H]1CC[C@H]2[C@@H]3CC=C4C[C@@H](OC(=O)CCC(=O)OC(C)C)CC[C@]4(C)[C@H]3CC[C@]12C [C-3-link]
P. falciparum asexual growth, percentage of control (0.781250000 uM, 24 h, replicate values, source data Fig. 2B; listed as GGA3): 138.2% and 69.67% and 108.2% and 127.5% and 114.2% and 69.05% and 145.4% and 89.72% and 93.86% | P. falciparum asexual growth, percentage of control (1.562500000 uM, 24 h, replicate values, source data Fig. 2B; listed as GGA3): 130.3% and 104.4% and 98.52% and 110.7% and 113.3% and 87.62% and 145.2% and 92.88% and 49.26% | P. falciparum asexual growth, percentage of control (3.125000000 uM, 24 h, replicate values, source data Fig. 2B; listed as GGA3): 128.1% and 110.6% (2×) and 120.7% and 130.3% and 119.8% and 103.2% and 132.9% and 71.34% | P. falciparum asexual growth, percentage of control (6.250000000 uM, 24 h, replicate values, source data Fig. 2B; listed as GGA3): 93.75% and 68.17% and 50.04% and 136.5% and 109.3% and 87.77% and 130% and 101.8% and 92.88% | P. falciparum asexual growth, percentage of control (12.500000000 uM, 24 h, replicate values, source data Fig. 2B; listed as GGA3): 119.7% and 70.39% and 47.65% and 137.3% and 124.9% and 51.68% and 112.4% and 101.8% and 77.92% | P. falciparum asexual growth, percentage of control (25.000000000 uM, 24 h, replicate values, source data Fig. 2B; listed as GGA3): 123.1% and 134.3% and 128.6% and 112.3% and 97.18% and 95.88% and 133.7% and 5.942% and 77.98% | P. falciparum asexual growth, percentage of control (50.000000000 uM, 24 h, replicate values, source data Fig. 2B; listed as GGA3): 105.1% and 133.6% and 70.07% and 116% and 103% and 74.44% and 77.73% and 97.2% and 107.5% | P. falciparum asexual growth, percentage of control (100.000000000 uM, 24 h, replicate values, source data Fig. 2B; listed as GGA3): 147.4% and 120% and 109% and 100.9% and 90.73% and 81.6% and 95.19% and 71.65% and 81.81% | P. falciparum asexual growth, percentage of control (200.000000000 uM, 24 h, replicate values, source data Fig. 2B; listed as GGA3): 125% and 120.9% and 88.35% and 101.9% and 79.2% and 19.96% and 163.3% and 103.1% and 105.4% | Inhibition of parasite growth (24 h): no inhibition of parasite growth up to 200 µM | IC50 [1]: > 200000 nM | IC50 [2]: > 200000 nM

CCN(CC)CCCC(C)Nc1ccnc2cc(Cl)ccc12 (centres unmarked) [Chloroquine, chloroquine, reference compound]
IC50 (Plasmodium falciparum, 3D7, 24 h, read-out: IC50, P. falciparum asexual growth inhibition): 10.9 nM | IC50 (Plasmodium falciparum, 3D7, 48 h, read-out: IC50, P. falciparum asexual growth inhibition): 9.9 nM | IC50 (Plasmodium falciparum, 3D7, 72 h, read-out: IC50, P. falciparum asexual growth inhibition): 9.7 nM

COc1cc(NC(C)CCCNC(=O)CCC(=O)O[C@H]2CC[C@@]3(C)C(=CC[C@H]4[C@@H]5CC[C@H]([C@H](C)CCCC(C)C)[C@@]5(C)CC[C@@H]43)C2)c2ncccc2c1 (some centres unmarked) [C-3-PQ]
P. falciparum asexual growth, percentage of control (0.390625000 uM, 24 h, replicate values, source data Fig. 2B; listed as BC64C): 131.7% and 66.76% and 95.56% and 108.4% and 112% and 85% and 101.8% and 112.2% and 92.84% | P. falciparum asexual growth, percentage of control (0.781250000 uM, 24 h, replicate values, source data Fig. 2B; listed as BC64C): 150.2% and 111.9% and 88.57% and 84.46% and 114.9% and 73.34% and 95.38% and 91.75% and 80.98% | P. falciparum asexual growth, percentage of control (1.562500000 uM, 24 h, replicate values, source data Fig. 2B; listed as BC64C): 126.1% and 129.8% and 105.9% and 128.7% and 121.9% and 90.74% and 123.6% and 79.12% and 103.6% | P. falciparum asexual growth, percentage of control (3.125000000 uM, 24 h, replicate values, source data Fig. 2B; listed as BC64C): 126.5% and 121.8% and 108.8% and 133% and 55.06% and 86.31% and 120.7% and 105.6% and 95.15% | P. falciparum asexual growth, percentage of control (6.250000000 uM, 24 h, replicate values, source data Fig. 2B; listed as BC64C): 133.8% and 98.67% and 102.2% and 109% and 94.05% and 103.7% and 108.1% and 76.85% and 81.21% | P. falciparum asexual growth, percentage of control (12.500000000 uM, 24 h, replicate values, source data Fig. 2B; listed as BC64C): 157.5% and 116.3% and 102.8% and 135.3% and 108.6% and 85.91% and 111.9% and 81.39% and 66.81% | P. falciparum asexual growth, percentage of control (25.000000000 uM, 24 h, replicate values, source data Fig. 2B; listed as BC64C): 149.9% and 129.1% and 105.1% and 150.2% and 115.2% and 49.33% and 125.1% and 71.79% and 57.24% | P. falciparum asexual growth, percentage of control (50.000000000 uM, 24 h, replicate values, source data Fig. 2B; listed as BC64C): 150.4% and 131.3% and 98.75% and 124.5% and 117.8% and 89.9% and 146.3% and 135.4% and 89.26% | P. falciparum asexual growth, percentage of control (100.000000000 uM, 24 h, replicate values, source data Fig. 2B; listed as BC64C): 78.34% and 90.49% and 98.72% and 114.4% and 78.89% and 75.44% and 171.9% and 124.7% and 104.9% | Inhibition of parasite growth (24 h): no inhibition of parasite growth up to 100 µM | IC50 [1]: > 200000 nM | IC50 [2]: > 200000 nM

CC(C)CCC[C@@H](C)[C@H]1CC[C@H]2[C@@H]3CC=C4C[C@@H](O)CC[C@]4(C)[C@H]3CC[C@]12C [Cholesterol, cholesterol]
Figure 5B dose-response source data (growth, replicate values) (Concentration 0.1953125 uM; individual replicates): 97.65 and 98.85 and 95.16 and 99.46 and 98.26 and 98.24 and 102.6 and 96.06 and 94.45 | Figure 5B dose-response source data (growth, replicate values) (Concentration 0.390625 uM; individual replicates): 95.8 and 101 and 95.94 and 100.9 and 102.2 and 97.7 and 93.65 and 98.46 and 98.54 and 95.82 and 88.53 and 95.33 and 96.33 and 97.81 and 92.68 | Figure 5B dose-response source data (growth, replicate values) (Concentration 0.78125 uM; individual replicates): 99.57 and 96.48 and 97.66 and 98.24 and 100.6 and 107.5 (2×) and 107.4 and 98.35 and 96.07 and 96.59 and 98.18 and 96.9 and 98.19 and 100.3 and 96.94 and 95.15 and 100.1 and 95.95 and 95.21 and 98.02 and 100 and 96.51 | Figure 5B dose-response source data (growth, replicate values) (Concentration 1.5625 uM; individual replicates): 98.13 and 98.43 and 98.36 and 100.5 and 96.82 and 110.3 and 108.8 and 107.2 and 96.68 and 92.68 and 85.1 and 96.36 and 98.17 and 96.8 and 101.5 and 98.35 and 94.77 and 99.77 and 99.63 and 99.09 and 97.58 and 93.8 and 94.68 | Figure 5B dose-response source data (growth, replicate values) (Concentration 3.125 uM; individual replicates): 99.65 and 95.37 and 96.75 and 101.4 and 107.2 and 106.1 and 106.5 and 104.9 and 98.31 and 99.02 and 98.46 and 95.92 and 100.7 and 98.47 and 104.4 and 98.86 and 101.6 and 91.05 and 95.88 and 95.01 and 101.3 and 96.56 and 97.39 | Figure 5B dose-response source data (growth, replicate values) (Concentration 200 uM; individual replicates): 102.2 and 101.3 and 99.63 | Figure 5B dose-response source data (growth, replicate values) (Concentration 400 uM; individual replicates): 106.3 and 99.95 and 99.03 and 90.17 | IC50 [1]: > 400000 nM
